# How the values were obtained:
# [1] = Inhibition of PKC catalytic subunit
# Mus musculus [2] = assay: Antiinflammatory activity against TPA-induced ear edema in Swiss mouse chronic dermatitis model assessed as inhibition of increase in ear weight; assay type: functional
# [3] = Inhibition of calcium ionophore A-23187/calcium-stimulated LTB4 production in rat polymorphonuclear leukocytes; assay type: functional
# Mus musculus [4] = assay: Antiinflammatory activity against Naja mossambica PLA2-induced Swiss mouse paw edema assessed as inhibition of paw volume at 5 mg/kg, ip administered before 30 mins of PLA2 challenge measured after 30 mins relative to control; assay type: functional; details: 0.5 h, route intraperitoneal
# Mus musculus [5] = assay: Antiinflammatory activity against Naja mossambica PLA2-induced Swiss mouse paw edema assessed as inhibition of paw volume at 5 mg/kg, ip administered before 30 mins of PLA2 challenge measured after 60 mins relative to control; assay type: functional; details: route intraperitoneal
# Mus musculus [6] = organism: Mus musculus; assay: Antiinflammatory activity against Swiss mouse chronic dermatitis model assessed as inhibition of TPA-induced tissue myeloperoxidase activity at 0.25 mg/ear applied twice daily for 4 days measured after 6 hrs relative to control; assay type: functional
# Platelet = assay: Inhibition of calcium ionophore A-23187/calcium-stimulated 12-hydroxyheptadecatrienoic acid production in human platelets; assay type: functional
# Mus musculus [7] = assay: Antiinflammatory activity against TPA-induced ear edema in Swiss mouse chronic dermatitis model assessed as inhibition of increase in ear weight at 0.25 mg/ear relative to control; assay type: functional
# Mus musculus [8] = assay: Antiinflammatory activity against carrageenan-induced Swiss mouse paw edema assessed as inhibition of paw volume at 10 mg/kg, po administered 1 hr before carrageenan challenge measured after 5 hrs relative to control; assay type: functional
# Mus musculus [9] = assay: Antiinflammatory activity against carrageenan-induced Swiss mouse paw edema assessed as inhibition of paw volume at 10 mg/kg, po administered 1 hr before carrageenan challenge measured after 1 hr relative to control; assay type: functional
# Mus musculus [10] = assay: Antiinflammatory activity against carrageenan-induced Swiss mouse paw edema assessed as inhibition of paw volume at 10 mg/kg, po administered 1 hr before carrageenan challenge measured after 3 hrs relative to control; assay type: functional
# Mus musculus [11] = assay: Antiinflammatory activity against TPA-induced ear edema Swiss mouse chronic dermatitis model assessed as inhibition of increase in ear weight at 0.5 mg/ear relative to control; assay type: functional
# Mus musculus [12] = organism: Mus musculus; assay: Antiinflammatory activity against Swiss mouse chronic dermatitis model assessed as inhibition of TPA-induced tissue myeloperoxidase activity at 0.5 mg/ear applied twice daily for 4 days measured after 6 hrs relative to control; assay type: functional
IC50 [1] [µM],SMILES,ID50 (Mus musculus [2]) [µmol],inhibition (INH) [3] [%],inhibition in vivo at 5 mg/kg (Mus musculus [4]) [%],inhibition in vivo at 5 mg/kg (Mus musculus [5]) [%],inhibition (INH) (Mus musculus [6]) [%],inhibition (INH) (Platelet) [%],inhibition (INH) (Mus musculus [7]) [%],inhibition in vivo at 10 mg/kg (Mus musculus [8]) [%],inhibition in vivo at 10 mg/kg (Mus musculus [9]) [%],inhibition in vivo at 10 mg/kg (Mus musculus [10]) [%],inhibition (INH) (Mus musculus [11]) [%],inhibition (INH) (Mus musculus [12]) [%]
3.5,CC(C)=CCc1c2c(c(O)c3c(=O)c(-c4ccc(O)cc4)coc13)C=CC(C)(C)O2 [WARANGALONE],0.54,<20,21,68,41,<20,78,,,,,
,COc1ccc2c(c1)c(CC(=O)O)c(C)n2C(=O)c1ccc(Cl)cc1 [INDOMETHACIN],0.29,,,,,,,31,14,60,82,36
,CN1CCC(=C2c3ccccc3C=Cc3ccccc32)CC1 [CYPROHEPTADINE],,,66,63,,,,,,,,

# Source: ChEMBL document CHEMBL1146546, “Warangalone, the isoflavonoid anti-inflammatory principle of Erythrina addisoniae stem bark” (J Nat Prod, 2003)
